# Like-named read-outs stand apart in the source and are kept apart here.
# Key:
# in vivo = format: in vivo; details: nude, mouse; for concentration at 0.5 h / concentration at 12 h / concentration at 48 h / concentration at 2 h / concentration at 5 h: CCI-779 (prototype) concentration; for Kp: read-out: AUCtissue/AUCplasma
# FKBP-12 protein = molecular target: T1, FKBP-12 protein (Homo sapiens, UniProt P62942); experiment: SPR (surface plasma resonance) binding with FKBP-12
# T1 construct: purchased sigma Co
# Protocol: (1) FKBP-12 protein was purchased from sigma Co.
# (2) HBS-EP buffer solution (10 mM Hepes, 150 mM NaCl, 3.4 mM EDTA, 0.005% (v/v) surfactant P20, pH 7.4)
# (3) Activating reagents EDC and NHS, and blocking reagents Ethanolamine, etc., were purchased from BIACORE AB Co. (Uppsala, Sweden).
# (4) BIAcore 3000 and CM5 chip were purchased from BIACORE AB Co. (Uppsala, Sweden).
# (2) […] was coupled to the FC2 channel on CM5 chip by using the Wizard for amino-coupling in Biacore 3000 controlling soft. 3.3 g/L of FKBP-12 protein was diluted with 10 mM NaAC (pH 4.6) to 66 μg/ml. The surface of the chip was washed by injecting a mixture of 0.1M1-(3-dimethylaminopropyl)-3-ethylcarbodiimide hydrochloride (EDCI) and 0.1M N-hydroxysuccinimide (NHS) (1:1) at a flow rate of 20 μL/min for 7 min. After that, the protein solution was injected, and then a 1M cholamine (pH 8.5) solution was fed for 7 min to block the activated surface of the chip. Preliminary screening and pharmacokinetic tests on the compounds
# The binding abilities of small molecular compounds with FKBP-12 protein were evaluated by SPR (surface plasma resonance). The stock solution of the compound was 10 mM, and was diluted by HBS-EP buffer solution at given ratios. Pharmacokinetic tests were carried out by the Wizard for kinetic analysis in Biacore 3000 controlling soft. The resulted data were fitted by 1:1 Langmuir binding model or stability model in Biacore 3000 analytical soft to obtain the exact kinetic and thermodynamic constants.
# [1] = tested on: human osteosarcoma U2SO xenograft; experiment: U2SO xenograft on nude mice; details: Table 5, oral 2.5 mg/kg, 1-5/3 w
# T Cells = experiment: Immunosuppressive activity assay: T cells inhibitory activity; format: cell-based; details: T-cell; Table 10
# [2] = Immunosuppressive activity assay: cytotoxicity; format: cell-based
# [3] = tested on: DNFB-induced delayed type hypersensitivity reaction; experiment: DNFB-induced delayed type hypersensitivity reaction in mice; format: in vivo, BALB/c mice; details: 2 mg/kg/d, oral administration; model control 0.175 mm
# Protocol: The delayed type hypersensitivity (DTH) reaction in mice was induced by DNFB to evaluate the inhibition effect of the compound on DTH in vivo. […] Preparation method: the compound was dissolved in anhydrous alcohol to prepare a stock solution (50 mg/ml), which was diluted to the desired concentration when use by using a solution of 5% PEG400, 5% Tween-80 in sterile water as a solvent. […] DNFB combined with dermal protein to form a complete antigen after sensitizing on feet of mice. One week later, mice were attacked by DNFB on ears to induce a local delayed allergic reaction, i.e., the delayed type hypersensitivity reaction to cause ear swelling, while the delayed type hypersensitivity reaction would not be observed on the ear which had not been attacked. Therefore, the ear swelling can reflect the level of the delayed type hypersensitivity reaction in mice induced by DNFB. (1) 20 μl of 0.5% DNFB solution in a mixture of acetone and olive oil (4:1) as a solvent was applied on both hind legs of mice for sensitization. […] (4) Thickness of the left and right ears of the mice was measured by a micrometer screw gauge, and the swelling was calculated by subtracting the thickness of the left ear from thickness of the right ear.
# [4] = tested on: human rhabdomyosarcoma RH-30 xenograft; experiment: RH-30 xenograft on nude mice; details: Table 4, 5 mg/kg po, 1-5/2 w;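 note: male BALB/cA nude mice with subcutaneous RH-30 tumors, oral dosing versus solvent-fed controls, caliper tumor volume, RTV relative to grouping day, T/C as treated RTV over control RTV ×100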
# Source text: Animals: BALB/cA nude mice, male, 40-45 days old, body weight: 21±2 g, provided by Shanghai Institute of Materia Medica, Chinese Academy of Sciences. License No.: SCXK (Shanghai) 2004-0002. Animal number in each group: 6 in negative control group, and 6 in administration group.
# The amount of inoculated cells was 5×10^6. After the xenograft was formed by inoculation, it was used after passed for 3 generations in nude mice.
# [5] = in vivo, Blood Plasma, Mean Value
# T1 sequence (P62942 whole entry, species assumed): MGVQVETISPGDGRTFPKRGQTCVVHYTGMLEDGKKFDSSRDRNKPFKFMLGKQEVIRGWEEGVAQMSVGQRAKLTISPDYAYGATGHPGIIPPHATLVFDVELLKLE
compound,measurement,setting,value
CO[C@H]1C[C@@H]2CC[C@@H](C)[C@@](O)(O2)C(=O)C(=O)N2CCCC[C@H]2C(=O)O[C@H]([C@H](C)C[C@@H]2CC[C@@H](OC(=O)C(C)(CO)CO)[C@H](OC)C2)CC(=O)[C@H](C)/C=C(\C)[C@@H](O)[C@@H](OC)C(=O)[C@H](C)C[C@H](C)/C=C/C=C/C=C/1C [CCI-779],AUC0-t (ng · h/g or ng · h/ml),in vivo; in vivo,1098 ng·h/mL
same,AUC(0-t),in vivo; in vivo,106 ng·h/mL
same,"Sirolimus concentration, Blood Plasma, Mean Value","in vivo; in vivo, 0.5 h",123 ng/mL
same,"Sirolimus concentration, Liver, Mean Value","in vivo; in vivo, 0.5 h",142 ng/g
same,"Sirolimus concentration, Tumor, Mean Value","in vivo; in vivo, 0.5 h",9.03 ng/g
same,"Sirolimus concentration, Blood Plasma, Mean Value","in vivo; in vivo, 2 h",143 ng/mL
same,"Sirolimus concentration, Liver, Mean Value","in vivo; in vivo, 2 h",98.4 ng/g
same,"Sirolimus concentration, Tumor, Mean Value","in vivo; in vivo, 2 h",36.3 ng/g
same,"Sirolimus concentration, Blood Plasma, Mean Value","in vivo; in vivo, 5 h",58.2 ng/mL
same,"Sirolimus concentration, Liver, Mean Value","in vivo; in vivo, 5 h",83.9 ng/g
same,"Sirolimus concentration, Tumor, Mean Value","in vivo; in vivo, 5 h",30.3 ng/g
same,"Sirolimus concentration, Blood Plasma, Mean Value","in vivo; in vivo, 12 h",14.2 ng/mL
same,"Sirolimus concentration, Liver, Mean Value","in vivo; in vivo, 12 h",33.2 ng/g
same,"Sirolimus concentration, Tumor, Mean Value","in vivo; in vivo, 12 h",19.1 ng/g
same,"Sirolimus concentration, Blood Plasma, Mean Value","in vivo; in vivo, 48 h",3.08 ng/mL
same,"Sirolimus concentration, Liver, Mean Value","in vivo; in vivo, 48 h",9.12 ng/g
same,"Sirolimus concentration, Tumor, Mean Value","in vivo; in vivo, 48 h",16.7 ng/g
same,concentration at 0.5 h,"in vivo; in vivo, Blood Plasma",20.5 ng/mL
same,concentration at 12 h,"in vivo; in vivo, Blood Plasma",1.3 ng/mL
same,concentration at 48 h,"in vivo; in vivo, Blood Plasma",0.16 ng/mL
same,concentration at 0.5 h,in vivo; [5],30.9 ng/mL
same,concentration at 2 h,in vivo; [5],11.7 ng/mL
same,concentration at 5 h,in vivo; [5],3.67 ng/mL
same,concentration at 12 h,in vivo; [5],1.27 ng/mL
same,concentration at 48 h,in vivo; [5],0.164 ng/mL
same,concentration at 0.5 h,"in vivo; in vivo, Liver",392 ng/g
same,concentration at 2 h,"in vivo; in vivo, Liver",103 ng/g
same,concentration at 5 h,"in vivo; in vivo, Liver",45.5 ng/g
same,concentration at 0.5 h,"in vivo; in vivo, Liver, Mean Value",474 ng/g
same,concentration at 2 h,"in vivo; in vivo, Liver, Mean Value",151 ng/g
same,concentration at 5 h,"in vivo; in vivo, Liver, Mean Value",57.6 ng/g
same,concentration at 12 h,"in vivo; in vivo, Liver, Mean Value",28.6 ng/g
same,concentration at 48 h,"in vivo; in vivo, Liver, Mean Value",3.11 ng/g
same,concentration at 2 h,"in vivo; in vivo, Tumor",31.1 ng/g
same,concentration at 12 h,"in vivo; in vivo, Tumor",9.37 ng/g
same,concentration at 48 h,"in vivo; in vivo, Tumor",6.48 ng/g
same,concentration at 2 h,"in vivo; in vivo, Tumor, Mean Value",28.8 ng/g
same,concentration at 5 h,"in vivo; in vivo, Tumor, Mean Value",16.6 ng/g
same,concentration at 12 h,"in vivo; in vivo, Tumor, Mean Value",10.5 ng/g
same,concentration at 48 h,"in vivo; in vivo, Tumor, Mean Value",6.52 ng/g
same,Cmax,"in vivo; in vivo, Cmax (ng/g or ng/ml)",30.9 ng/mL
same,Kp,in vivo; liver,16.8
same,Kp,in vivo; tumor,4.77
same,binding with FKBP12,FKBP-12 protein,concentration-dependently bind
same,Kd,FKBP-12 protein; FKBP12,0.00102 µM
same,Body Weight (g) end,[1],17.7 g
same,Body Weight (g) start,[1],19.9 g
same,RTV,[1],17 ± 7.0
same,T/C (%),[1],69.0%
same,TV (mm^3) d21,[1],1446 ± 630 mm^3
same,TV (mm^3) d0,[1]; baseline,85 ± 17 mm^3
CO[C@H]1CC2CC[C@@H](C)[C@@](O)(O2)C(=O)C(=O)N2CCCCC2C(=O)O[C@H]([C@H](C)C[C@@H]2CC[C@@H](OC(=O)OCC3COC(C)(C)O3)[C@H](OC)C2)CC(=O)[C@H](C)/C=C(\C)[C@@H](OC(=O)OCC2COC(C)(C)O2)[C@@H](OC)C(=O)[C@H](C)C[C@H](C)/C=C/C=C/C=C/1C (some centres unmarked) [Y230],IC50,T Cells,5.3 µM
same,Safety Index CC50/IC50,[2]; Table 10,>18.9
same,CC50,"[2]; Table 10, value beyond the >100 μM bound, read-out: Cytotoxicity CC50, value in brackets",39800 µM
same,CC50,"[2]; Table 10, read-out: Cytotoxicity CC50",> 100 µM
C[C@@H]1C[C@H]2[C@@H]3CCC4=CC(=O)C=C[C@]4(C)[C@@]3(F)[C@@H](O)C[C@]2(C)[C@@]1(O)C(=O)CO [Dex],average ear swelling degree,[3],0.13 mm
CO[C@H]1CC2CC[C@@H](C)[C@@](O)(O2)C(=O)C(=O)N2CCCCC2C(=O)O[C@H]([C@H](C)C[C@@H]2CC[C@@H](O)[C@H](OC)C2)CC(=O)[C@H](C)/C=C(\C)[C@@H](OC(=O)OCC(O)CO)[C@@H](OC)C(=O)[C@H](C)C[C@H](C)/C=C/C=C/C=C/1C (some centres unmarked) [Y31-1],Body Weight (g) end,[4],21.2 g
same,Body Weight (g) start,[4],20.2 g
same,RTV,[4],2.4 ± 1.0
same,T/C (%),[4],55.7%
same,TV (mm^3) d14,[4],381 ± 158 mm^3
same,TV (mm^3) d0,[4]; baseline,164 ± 44 mm^3
